In patent US4338305A, “Use of LRH and LRH agonists” (American Home Products Corporation, priority 1975, dated 1982):
Counter-ions that a name gives are not always drawn. Like-named read-outs stand apart in the source and are kept apart here. Non-standard residues stand in square brackets, D forms with d. Residues, ends and D or L forms follow the SMILES beside them. pGlu = O=C1CC[C@@H](C(=O)O)N1

Assays:
Proestrous female rats = assay: Ovulation Induction in the Rat; type: in vivo; details: as a result of induced LH production
Experimental: (b) Ovulation Induction in the Rat
Proestrous female rats were injected intraperitoneally with a hypnotic dose of Nembutal about (~60 mg/kg) at 1:30 P.M. This treatment blocks the spontaneous ovulatory surge of pituitary LH which generally occurs between 2:00 and 4:00 P.M. Between 1:40 and 1:50 P.M. the recipients then received the test material via the jugular vein. The following morning the animals are sacrificed and the fallopian tubes examined for ova under a dissecting microscope.

[1] = system: Female, Sprague-Dawley rats
From the text: Female, Sprague-Dawley rats, 350±30 g., are caged daily (P.M.) with adult, sexually experienced Sprague-Dawley males. Vaginal smears are taken each A.M. after cohabitation. The presence of vaginal sperm is used as the index of mating and the initiation of pregnancy. Day 1 of pregnancy is taken as the day sperm is found in the vaginal smear. Mated females are then grouped separately. Treatment is begun at any time over the first 12 days of pregnancy at a divided dose (9 A.M. and 3 P.M.) or a single treatment. Claudogenic activity is defined for compounds administered over the first 7 days inclusive of pregnancy (Pre-implantation). Interceptive activity is defined for compounds administered days 7-12 inclusive of pregnancy (Post-implantation). Rats are sacrificed on day 14 (claudogen), day 18 (interceptive) or allowed to come to term prior to the option of sacrifice (claudogen or interceptive.) Rats containing at least one "Normal" fetus are considered pregnant.
For the purpose of defining the post-coital stages of pregnancy in the rat as an experimental model, the following schedule is provided in definition of post-coital contraceptive activity which, for the purpose of this disclosure, is intended to embrace both pre-(claudogenic) and post-(interceptive) implantation contraceptive activity: day 1--vaginal sperm; days 1-3--ova transport in oviducts, and fertilization; days 3-5 blastocyst free in uterine lumen; days 5-7--implantation into uterine wall; days>7--post implantation.

[2] = literature report; cited from earlier work
[3] = SC, total daily dose 100 μg/rat, Rx days 1-3 post coitus
[4] = SC, total daily dose 300 μg/rat, Rx days 1-3 post coitus
[5] = PO, total daily dose 500 μg/rat, Rx days 1-7 post coitus
[6] = PO, total daily dose 500 μg/rat, Rx days 7-12 post coitus
[7] = PO, total daily dose 1000 μg/rat, Rx days 1-7 post coitus
[8] = PO, total daily dose 1000 μg/rat, Rx days 7-12 post coitus
[9] = SC, total daily dose 100 μg/rat, Rx days 1-7 post coitus
[10] = SC, total daily dose 5000 μg/rat, Rx day 3 post coitus
[11] = SC, total daily dose 200 μg/rat, Rx days 1-3 post coitus
[12] = SC, total daily dose 5.0 μg/rat, Rx days 7-12 post coitus

Structure (SMILES): CCNC(=O)[C@@H]1CCCN1C(=O)[C@H](CCCNC(=N)N)NC(=O)[C@H](CC(C)C)NC(=O)[C@@H](CS)NC(=O)[C@H](Cc1ccc(O)cc1)NC(=O)[C@H](CO)NC(=O)[C@H](Cc1c[nH]c2ccccc12)NC(=O)[C@H](Cc1c[nH]cn1)NC(=O)[C@@H]1CCC(=O)N1 [[D-Cys^6, des-Gly-NH2^10]LRH ethylamide]
- activity relative to LRH as ovulation inducing agents (Proestrous female rats): > 40 times

Structure (SMILES): CC(C)C[C@H](NC(=O)[C@@H](C)NC(=O)[C@H](Cc1ccc(O)cc1)NC(=O)[C@H](CO)NC(=O)[C@H](Cc1c[nH]c2ccccc12)NC(=O)[C@H](Cc1c[nH]cn1)NC(=O)[C@@H]1CCC(=O)N1)C(=O)N[C@@H](CCCNC(=N)N)C(=O)N1CCC[C@H]1C(=O)NCC(N)=O [[D-Ala^6]LRH]
- % inhibition of Pregnancy [1, 3]: 17%
- % inhibition of Pregnancy [1, 4]: 50%

Structure (SMILES): CCNC(=O)[C@@H]1CCCN1C(=O)[C@H](CCCNC(=N)N)NC(=O)[C@H](CC(C)C)NC(=O)[C@@H](CC(=O)O)NC(=O)[C@H](Cc1ccc(O)cc1)NC(=O)[C@H](CO)NC(=O)[C@H](Cc1c[nH]c2ccccc12)NC(=O)[C@H](Cc1c[nH]cn1)NC(=O)[C@@H]1CCC(=O)N1 [[D-Asp^6, des-Gly-NH2^10]LRH ethylamide]
- activity relative to LRH as ovulation inducing agents (Proestrous female rats): > 40 times

Structure (SMILES): CC(C)C[C@H](NC(=O)CNC(=O)[C@H](Cc1ccc(O)cc1)NC(=O)[C@H](CO)NC(=O)[C@H](Cc1c[nH]c2ccccc12)NC(=O)[C@H](Cc1cnc[nH]1)NC(=O)[C@@H]1CCC(=O)N1)C(=O)N[C@@H](CCCNC(=N)N)C(=O)N1CCC[C@H]1C(=O)NCC(N)=O [LRH, L-(5-oxo-prolyl)-L-histidyl-L-tryptophyl-L-seryl-L-tyrosyl-glycyl-L-leucyl-L-arginyl-L-prolyl-glycinamide, reference compound]
- % inhibition of Pregnancy [1, 5]: 20%
- % inhibition of Pregnancy [1, 6]: 0%
- % inhibition of Pregnancy [1, 7]: 60%
- % inhibition of Pregnancy [1, 8]: 100%
- % inhibition of Pregnancy ([1]; SC, total daily dose 50 μg/rat, Rx days 1-7 post coitus): 0%
- % inhibition of Pregnancy [1, 3]: 0%
- % inhibition of Pregnancy [1, 9]: 100%
- % inhibition of Pregnancy ([1]; SC, total daily dose 200 μg/rat, Rx days 7-12 post coitus): 50%
- % inhibition of Pregnancy [1, 4]: 20%
- % inhibition of Pregnancy ([1]; SC, total daily dose 500 μg/rat, Rx days 1-3 post coitus): 40%
- % inhibition of Pregnancy ([1]; SC, total daily dose 1000 μg/rat, Rx days 1-3 post coitus): 40%
- % inhibition of Pregnancy ([1]; SC, total daily dose 1000 μg/rat, Rx days 1-7 post coitus): 100%
- % inhibition of Pregnancy [1, 10]: 100%
- post-coital anti-pregnancy (claudogenic/interceptive) effect ([1]; rat, administered post-coitally): effective in inhibiting pregnancy
- teratogenicity ([1]; rat, in vivo): some signs of teratogenicity

Structure (SMILES): CCNC(=O)[C@@H]1CCCN1C(=O)[C@H](CCCNC(=N)N)NC(=O)[C@H](CO)NC(=O)[C@@H](CC(C)C)NC(=O)[C@H](Cc1ccc(O)cc1)NC(=O)[C@H](CO)NC(=O)[C@H](Cc1c[nH]c2ccccc12)NC(=O)[C@H](Cc1c[nH]cn1)NC(=O)[C@@H]1CCC(=O)N1 ([pGlu]HWSY[dL]SRP-NHEt)
- activity relative to LRH as ovulation inducing agents (Proestrous female rats): > 40 times

Structure (SMILES): CC(C)C[C@H](NC(=O)[C@@H](CCCCN)NC(=O)[C@H](Cc1ccc(O)cc1)NC(=O)[C@H](CO)NC(=O)[C@H](Cc1c[nH]c2ccccc12)NC(=O)[C@H](Cc1c[nH]cn1)NC(=O)[C@@H]1CCC(=O)N1)C(=O)N[C@@H](CCCNC(=N)N)C(=O)N1CCC[C@H]1C(=O)NCC(N)=O [[D-Lys^6]LRH, L-Pyroglutamyl-L-histidyl-L-tryptophyl-L-seryl-L-tyrosyl-D-lysyl-L-leucyl-L-arginyl-L-prolyl-glycinamide]
- % inhibition of Pregnancy [1, 5]: 40%
- % inhibition of Pregnancy ([1]; SC, total daily dose 5.0 μg/rat, Rx days 1-12 post coitus): 20%
- % inhibition of Pregnancy [1, 3]: 0%
- % inhibition of Pregnancy [1, 4]: 60%
- % inhibition of Pregnancy ([1]; SC, total daily dose 300 μg/rat, Rx days 1-7 post coitus): 100%

Structure (SMILES): CCNC(=O)[C@@H]1CCCN1C(=O)[C@H](CCCNC(=N)N)NC(=O)[C@H](CC(C)C)NC(=O)[C@@H](CC(C)C)NC(=O)[C@H](Cc1ccc(O)cc1)NC(=O)[C@H](CO)NC(=O)[C@H](Cc1c[nH]c2ccccc12)NC(=O)[C@H](Cc1c[nH]cn1)NC(=O)[C@@H]1CCC(=O)N1
- % inhibition of Pregnancy [1, 11]: 20%
- % inhibition of Pregnancy ([1]; SC, total daily dose 200 μg/rat, Rx days 1-7 post coitus): 100%

Structure (SMILES): CCNC(=O)[C@@H]1CCCN1C(=O)[C@H](CCCNC(=N)N)NC(=O)[C@H](CC(C)C)NC(=O)[C@@H](CCCCN)NC(=O)[C@H](Cc1ccc(O)cc1)NC(=O)[C@H](CO)NC(=O)[C@H](Cc1c[nH]c2ccccc12)NC(=O)[C@H](Cc1c[nH]cn1)NC(=O)[C@@H]1CCC(=O)N1 [[D-Lys^6, des-Gly-NH2^10]LRH ethylamide]
- activity relative to LRH as ovulation inducing agents (Proestrous female rats): > 40 times

Structure (SMILES): CCNC(=O)[C@@H]1CCCN1C(=O)[C@H](CCCNC(=N)N)NC(=O)[C@H](CC(C)C)NC(=O)[C@@H](CCC(=O)O)NC(=O)[C@H](Cc1ccc(O)cc1)NC(=O)[C@H](CO)NC(=O)[C@H](Cc1c[nH]c2ccccc12)NC(=O)[C@H](Cc1c[nH]cn1)NC(=O)[C@@H]1CCC(=O)N1 [[D-Glu^6, des-Gly-NH2^10]LRH ethylamide]
- activity relative to LRH as ovulation inducing agents (Proestrous female rats): > 40 times

Structure (SMILES): CC(C)C[C@H](NC(=O)C(C)(C)NC(=O)[C@H](Cc1ccc(O)cc1)NC(=O)[C@H](CO)NC(=O)[C@H](Cc1c[nH]c2ccccc12)NC(=O)[C@H](Cc1c[nH]cn1)NC(=O)[C@@H]1CCC(=O)N1)C(=O)N[C@@H](CCCNC(=N)N)C(=O)N1CCC[C@H]1C(=O)NCC(N)=O [[2-methyl-Ala^6]LRH, L-(5-oxoprolyl)-L-histidyl-L-tryptophyl-L-seryl-L-tyrosyl-2-methylalanyl-L-leucyl-L-arginyl-L-prolylglycinamide acetate salt]
- % inhibition of Pregnancy [1, 9]: 75%
- % inhibition of Pregnancy ([1]; SC, total daily dose 500 μg/rat, Rx days 1-7 post coitus): 100%

Structure (SMILES): CCNC(=O)[C@@H]1CCCN1C(=O)[C@H](CCCNC(=N)N)NC(=O)[C@H](CS)NC(=O)[C@@H](CC(C)C)NC(=O)[C@H](Cc1ccc(O)cc1)NC(=O)[C@H](CO)NC(=O)[C@H](Cc1c[nH]c2ccccc12)NC(=O)[C@H](Cc1c[nH]cn1)NC(=O)[C@@H]1CCC(=O)N1 ([pGlu]HWSY[dL]CRP-NHEt)
- activity relative to LRH as ovulation inducing agents (Proestrous female rats): > 40 times

Structure (SMILES): CCNC(=O)[C@@H]1CCCN1C(=O)[C@H](CCCNC(=N)N)NC(=O)[C@H](CS)NC(=O)[C@@H](C)NC(=O)[C@H](Cc1ccc(O)cc1)NC(=O)[C@H](CO)NC(=O)[C@H](Cc1c[nH]c2ccccc12)NC(=O)[C@H](Cc1c[nH]cn1)NC(=O)[C@@H]1CCC(=O)N1 ([pGlu]HWSY[dA]CRP-NHEt)
- activity relative to LRH as ovulation inducing agents (Proestrous female rats): > 40 times

Structure (SMILES): CCNC(=O)[C@@H]1CCCN1C(=O)[C@H](CCCNC(=N)N)NC(=O)[C@H](CO)NC(=O)[C@@H](CO)NC(=O)[C@H](Cc1ccc(O)cc1)NC(=O)[C@H](CO)NC(=O)[C@H](Cc1c[nH]c2ccccc12)NC(=O)[C@H](Cc1c[nH]cn1)NC(=O)[C@@H]1CCC(=O)N1 ([pGlu]HWSY[dS]SRP-NHEt)
- activity relative to LRH as ovulation inducing agents (Proestrous female rats): > 40 times

Structure (SMILES): CCNC(=O)[C@@H]1CCCN1C(=O)[C@H](CCCNC(=N)N)NC(=O)[C@H](CC(C)C)NC(=O)[C@@H](C)NC(=O)[C@H](Cc1ccc(O)cc1)NC(=O)[C@H](CO)NC(=O)[C@H](Cc1c[nH]c2ccccc12)NC(=O)[C@H](Cc1c[nH]cn1)NC(=O)[C@@H]1CCC(=O)N1
- % inhibition of Pregnancy ([1]; PO, total daily dose 200 μg/rat, Rx days 7-12 post coitus): 0%
- % inhibition of Pregnancy [1, 6]: 67%
- % inhibition of Pregnancy [1, 7]: 100%
- % inhibition of Pregnancy [1, 8]: 100%
- % inhibition of Pregnancy ([1]; SC, total daily dose 0.10 μg/rat, Rx days 7-12 post coitus): 0%
- % inhibition of Pregnancy ([1]; SC, total daily dose 1.0 μg/rat, Rx days 1-7 post coitus): 100%
- % inhibition of Pregnancy ([1]; SC, total daily dose 1.0 μg/rat, Rx days 7-12 post coitus): 100%
- % inhibition of Pregnancy [1, 12]: 100%
- % inhibition of Pregnancy ([1]; SC, total daily dose 50 μg/rat, Rx days 1-3 post coitus): 40%
- % inhibition of Pregnancy [1, 3]: 80%
- % inhibition of Pregnancy [1, 9]: 100%
- % inhibition of Pregnancy [1, 11]: 100%
- % inhibition of Pregnancy [1, 10]: 100%
- % inhibition of Pregnancy ([1]; SC, total daily dose 5000 μg/rat, Rx day 7 post coitus): 0%
- % inhibition of Pregnancy ([1]; SC, total daily dose 5000 μg/rat, Rx day 8 post coitus): 100%
- % inhibition of Pregnancy ([1]; SC, total daily dose .002 μg/rat, Rx days 1-7 post coitus): 0%
- % inhibition of Pregnancy ([1]; SC, total daily dose .010 μg/rat, Rx days 1-7 post coitus): 30%
- activity relative to LRH [2]: ~50 times
- potency/activity versus LRH, in words [2]: markedly more potent than LRH

Structure (SMILES): CCNC(=O)[C@@H]1CCCN1C(=O)[C@H](CCCNC(=N)N)NC(=O)[C@H](CC(C)C)NC(=O)[C@@H](CC)NC(=O)[C@H](Cc1ccc(O)cc1)NC(=O)[C@H](CO)NC(=O)[C@H](Cc1c[nH]c2ccccc12)NC(=O)[C@H](Cc1c[nH]cn1)NC(=O)[C@@H]1CCC(=O)N1
- % inhibition of Pregnancy [1, 6]: 20%
- % inhibition of Pregnancy ([1]; SC, total daily dose 5.0 μg/rat, Rx days 1-7 post coitus): 40%
- % inhibition of Pregnancy [1, 12]: 80%
- % inhibition of Pregnancy [1, 9]: 100%
